“And” between values parts separate entries of the source, which are not always exact repeats. Identical values can stand only once.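 Protocol summary: plate cells (96-well), add compound at 5 concentrations, incubate 48 h, interpolate endpoints linearly. The concentration for 50% growth inhibition is given as GI50. TGI marks complete inhibition of growth.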
Key:
Test in all cases: NCI anticancer screen, dose series, 48 h
[1] = tested on: MALME-3M melanoma
[2] = tested on: RXF 393 renal
[3] = tested on: U251 CNS
[4] = tested on: DU-145 prostate
[5] = tested on: SK-OV-3 ovarian
[6] = tested on: CAKI-1 renal
[7] = tested on: PC-3 prostate
[8] = tested on: SR leukemia

Row | Compound | GI50 [1] | TGI [1] | GI50 [2] | TGI [2] | GI50 [3] | TGI [3] | GI50 [4] | TGI [4] | GI50 [5] | TGI [5] | GI50 [6] | TGI [6] | GI50 [7] | TGI [7] | GI50 [8] | TGI [8]
1 | O=C(c1ccc(F)c(F)c1Nc1ccc(I)cc1F)N1CC(O)([C@H]2CCCCN2)C1 | 0.019 µM | 0.0976 µM | 2.08 µM | 8.76 µM | 3.5 µM | 18.9 µM | 9.76 µM | 22.3 µM | 8.15 µM | 21.1 µM | 6.28 µM | 20.3 µM | 9.68 µM | 22.3 µM | 3.94 µM | 17.8 µM
2 | CCNC(=O)Nc1ccc(-c2nc3c(c(N4CCOC[C@@H]4C)n2)CCN(C2COC2)C3)cc1 | 0.0743 µM and 0.0825 µM | 1.6 µM and 1.2 µM | 0.137 µM and 0.125 µM | 0.727 µM and 0.857 µM | 0.357 µM and 0.413 µM | > 100 µM | 0.562 µM and 0.435 µM | > 100 µM | 0.148 µM and 0.131 µM | 1.16 µM and 0.956 µM | 0.586 µM and 0.179 µM | > 31.5 µM | 0.166 µM and 0.106 µM |  | 0.439 µM and 0.416 µM | > 100 µM
3 | N#Cc1cc(-c2ccccc2)[nH]c1-c1nccc2ccccc12 | 13 µM | 84.5 µM | 13.6 µM | 89.1 µM | 25.1 µM | > 100 µM | 32.3 µM | > 100 µM | 17.8 µM | > 100 µM | 12.5 µM | > 100 µM | 11.8 µM | > 100 µM | 5.72 µM | > 100 µM
4 | COc1ccc(C2=C(Br)C(=O)OC2)cc1Cl | 37.3 µM | > 78.3 µM | 26.8 µM | > 72.4 µM | 28.5 µM | > 91.1 µM | 20.8 µM | 88.9 µM |  | > 66.9 µM | 8.52 µM | 51.1 µM | 33.1 µM | > 91.5 µM | 22.1 µM | > 100 µM
5 | NC(=O)Cc1ccccc1Oc1nccc(-c2c(-c3ccc(F)cc3)ncn2C2CCNCC2)n1 | > 25 µM | > 25 µM | > 25 µM | > 25 µM | > 25 µM | > 25 µM | > 25 µM | > 25 µM | > 25 µM | > 25 µM | > 25 µM | > 25 µM | > 25 µM | > 25 µM | > 25 µM | > 25 µM
6 | O=C(Nc1cccc(-n2cc(-c3ccncc3)c(-c3cc(O)cc(Cl)c3)n2)c1)Nc1ccc(Cl)c(Cl)c1 | 1.8 µM | 5.48 µM | 0.555 µM | 2.46 µM | 1.44 µM | 3.09 µM | 2.8 µM | 10.1 µM | 3.4 µM | 9.43 µM | 2.21 µM | 7.01 µM | 1.69 µM | 5.68 µM | 1.31 µM | 4.24 µM
7 | COC(=O)C1=C(C(=O)Nc2cccnc2)C2OC1(C(Cc1ccccc1)Oc1ccccc1)C1OC21 (configuration not stated) | 1.6 µM | 3.31 µM | 1.71 µM | 3.22 µM | 10.7 µM | 22.6 µM | 1.77 µM | 3.27 µM | 18.3 µM | 48.2 µM | 1.78 µM | 4 µM | 9.62 µM | 21.9 µM | 0.918 µM | 5.13 µM
8 | CC(C)[C@@H]1NC(=O)[C@]2(C)CSC(=N2)c2csc(n2)CNC(=O)C[C@@H](/C=C/CCS)OC1=O | 0.0295 µM | > 100 µM | 0.0521 µM | 0.33 µM | 0.0843 µM | 1.02 µM | 0.147 µM | > 100 µM | 0.0204 µM | 0.228 µM | 1.83 µM | 7.83 µM | 0.0577 µM | > 100 µM | 0.0563 µM | > 100 µM
9 | CCCCCCCCCCCCCCCCCC(=O)[O][Sn]([CH2]CCC)([CH2]CCC)[CH2]CCC | 0.141 µM | 0.327 µM | 0.1 µM | 0.253 µM | 0.153 µM | 0.319 µM | 0.136 µM | 0.271 µM | 0.143 µM | 0.288 µM | 0.0524 µM | 0.214 µM | 0.18 µM | 0.463 µM | 0.0738 µM | 0.388 µM
10 | O=C1OCC2=C1C(c1cccc([N+](=O)[O-])c1)c1cc3c(cc1N2CCO)CCC3 (configuration not stated) | 0.504 µM | 35.1 µM | 0.123 µM | > 50 µM | 0.218 µM | > 50 µM | 0.19 µM | > 24.5 µM | 0.226 µM | > 50 µM | 0.083 µM | > 38 µM | 0.145 µM | > 50 µM | 0.0554 µM | > 36.3 µM
11 | Clc1cccc(Cn2cc(Cc3cn(Cc4cccc(Cl)c4)c4ccccc34)c3ccccc32)c1 | > 100 µM | > 100 µM | > 100 µM | > 100 µM | > 100 µM | > 100 µM | > 100 µM | > 100 µM | > 100 µM | > 100 µM | > 100 µM | > 100 µM | > 100 µM | > 100 µM | > 100 µM | > 100 µM
12 | Nc1cccc(-c2nc3sccn3c2-c2ccnc(NCCCNS(=O)(=O)c3ccc(C(F)(F)F)cc3)n2)c1 | 3.94 µM | 18 µM | 6.29 µM | > 100 µM | 5.87 µM | > 100 µM | 4.26 µM | 35.6 µM | 5.37 µM | > 100 µM | 3.25 µM | 72.1 µM | 2.41 µM | 11.9 µM | 3.84 µM | 43.9 µM
13 | CCN1CCN(CCNc2nccc(-c3c(-c4cccc(O)c4)nc4sccn34)n2)S1(=O)=O | 0.0775 µM and 0.118 µM | 0.42 µM and 0.785 µM | 4.02 µM and 5.06 µM | 22.7 µM and 36.3 µM | 30.8 µM and 11.1 µM | 32.5 µM and > 100 µM | 16.1 µM and 8.51 µM | 32.5 µM and > 100 µM | 7.93 µM and 3.95 µM | 32.5 µM and 22.8 µM | 7.33 µM and 3 µM | 28.5 µM and > 100 µM | 17.6 µM and 20.1 µM | 32.5 µM and > 100 µM | 7.65 µM and 5.96 µM | 32.5 µM and 64.3 µM
14 | O=C(Nc1cccnc1)c1cccs1 | > 100 µM | > 100 µM | 7.36 µM | > 100 µM | 1.86 µM | > 100 µM | 4.6 µM | > 100 µM | 5.57 µM | > 100 µM | 1.4 µM | > 100 µM | > 100 µM | > 100 µM | 8.47 µM | > 100 µM

Source: PubChem BioAssay (NCI)
